Laboratory results taken from patent US7205295B2, “Benzoxazin-3-ones and derivatives thereof as therapeutic agents” (Warner-Lambert Company LLC, priority 2002, dated 2007).
pIC50: −log10 of the molar value.

target: T1, PI3Kγ (p101/p110γ protein) (Homo sapiens, UniProt P48736); test: PI3Kγ In Vitro Kinase Assay; format: biochemical; settings: purified recombinant p101/p110γ with G protein β1/γ2 subunits; 20 μM ATP, 25 μM PIP2; 20 minutes at room temperature
T1 construct: HA; made in house; host or cells: Spodoptera frugiperda (Sf9) cells, baculovirus co-infection
In short: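 Reactions ran 20 min at room temperature, pairing lipid micelles (25 μM PIP2, 300 μM PE, 0.02% Na-cholate, 10 mM MgCl2) with 20 μM ATP including [γ-32P]ATP. The enzyme was recombinant p101/p110γ (2.7 nM) with G protein β1/γ2 (57.7 nM). [32P]PIP3 product was stopped with H3PO4, filtered and scintillation counted.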

T1 sequence (P48736 whole entry, species assumed): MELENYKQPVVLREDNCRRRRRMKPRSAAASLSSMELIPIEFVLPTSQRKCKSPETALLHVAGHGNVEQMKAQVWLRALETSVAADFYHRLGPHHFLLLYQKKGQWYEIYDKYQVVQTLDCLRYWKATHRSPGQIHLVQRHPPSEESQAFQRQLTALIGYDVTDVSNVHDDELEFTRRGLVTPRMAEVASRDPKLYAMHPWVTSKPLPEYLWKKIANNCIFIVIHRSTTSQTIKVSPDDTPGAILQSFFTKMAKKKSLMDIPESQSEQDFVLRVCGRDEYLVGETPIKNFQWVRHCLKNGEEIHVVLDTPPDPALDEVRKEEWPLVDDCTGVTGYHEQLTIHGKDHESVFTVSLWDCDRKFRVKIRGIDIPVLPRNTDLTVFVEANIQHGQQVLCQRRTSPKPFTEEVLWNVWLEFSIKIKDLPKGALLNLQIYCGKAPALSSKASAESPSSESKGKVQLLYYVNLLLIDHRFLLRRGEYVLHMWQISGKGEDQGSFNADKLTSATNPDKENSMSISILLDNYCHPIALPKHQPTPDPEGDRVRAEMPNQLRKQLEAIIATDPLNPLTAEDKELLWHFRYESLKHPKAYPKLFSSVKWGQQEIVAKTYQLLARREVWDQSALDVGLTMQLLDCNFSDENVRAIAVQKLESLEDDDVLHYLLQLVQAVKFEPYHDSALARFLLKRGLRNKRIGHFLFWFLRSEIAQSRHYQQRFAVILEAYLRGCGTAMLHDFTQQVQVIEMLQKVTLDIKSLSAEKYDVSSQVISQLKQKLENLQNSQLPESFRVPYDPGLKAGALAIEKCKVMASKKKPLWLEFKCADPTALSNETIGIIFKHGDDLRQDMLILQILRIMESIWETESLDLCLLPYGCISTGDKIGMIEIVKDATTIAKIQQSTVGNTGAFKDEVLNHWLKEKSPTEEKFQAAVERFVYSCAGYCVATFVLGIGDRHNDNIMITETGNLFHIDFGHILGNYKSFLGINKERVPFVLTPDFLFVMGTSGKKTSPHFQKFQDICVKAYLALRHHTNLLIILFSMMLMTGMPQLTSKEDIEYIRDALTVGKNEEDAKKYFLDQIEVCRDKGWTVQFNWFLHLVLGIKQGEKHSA
T1 sequence (Q8WYR1 whole entry partner, species assumed): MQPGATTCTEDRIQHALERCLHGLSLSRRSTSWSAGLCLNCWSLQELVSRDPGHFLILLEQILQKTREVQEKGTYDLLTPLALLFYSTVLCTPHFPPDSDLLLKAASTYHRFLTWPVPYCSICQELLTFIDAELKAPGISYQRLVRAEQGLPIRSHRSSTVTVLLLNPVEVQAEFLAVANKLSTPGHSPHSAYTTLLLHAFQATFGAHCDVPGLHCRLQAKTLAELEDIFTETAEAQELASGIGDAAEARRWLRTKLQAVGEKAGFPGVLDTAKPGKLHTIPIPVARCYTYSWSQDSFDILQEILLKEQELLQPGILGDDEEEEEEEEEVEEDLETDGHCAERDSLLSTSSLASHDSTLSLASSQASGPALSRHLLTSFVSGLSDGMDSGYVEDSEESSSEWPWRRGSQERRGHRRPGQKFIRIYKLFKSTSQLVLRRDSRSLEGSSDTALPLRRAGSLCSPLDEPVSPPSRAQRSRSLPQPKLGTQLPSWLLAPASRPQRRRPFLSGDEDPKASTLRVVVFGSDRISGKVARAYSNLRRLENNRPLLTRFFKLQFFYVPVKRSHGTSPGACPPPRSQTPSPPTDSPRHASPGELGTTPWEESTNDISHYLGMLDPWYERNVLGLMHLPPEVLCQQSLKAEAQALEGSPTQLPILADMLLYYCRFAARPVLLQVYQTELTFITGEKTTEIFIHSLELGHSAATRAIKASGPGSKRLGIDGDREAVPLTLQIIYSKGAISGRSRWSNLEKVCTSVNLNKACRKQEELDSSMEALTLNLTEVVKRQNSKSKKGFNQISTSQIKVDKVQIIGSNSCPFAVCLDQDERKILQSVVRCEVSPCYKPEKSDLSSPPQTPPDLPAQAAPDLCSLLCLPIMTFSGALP

| Molecule | pIC50 |
| --- | --- |
| Cc1cc(C)cc(CN2C(=O)COc3c(Cl)cc(C=C4SC(=O)NC4=O)cc32)c1 [Example 68, 5-[8-Chloro-4-(3,5-dimethyl-benzyl)-3-oxo-3,4-dihydro-2H-1,4-benzoxazin-6-ylmethylene]-thiazolidine-2,4-dione] | 6.26 |
| CS(=O)(=O)c1ccc(CN2C(=O)COc3c(F)cc(/C=C4\SC(=S)NC4=O)cc32)cc1 [Example 289, 8-Fluoro-4-(4-methanesulfonyl-benzyl)-6-[4-oxo-2-thioxo-thiazolidin-(5Z)-ylidenemethyl]-4H-benzo[1,4]oxazin-3-one; Compound with Ethane-1,2-diamine] | 8.00 |
| O=C1COc2ncc(C=C3SC(=S)NC3=O)cc2N1 [Example 195, 7-(4-Oxo-2-thioxo-thiazolidin-5-ylidenemethyl)-1H-pyrido[2,3-b][1,4]oxazin-2-one] | 5.72 |
| Cc1cc(CN2C(=O)COc3ccc(C=C4SC(=S)N(CC(=O)O)C4=O)cc32)c(C(F)(F)F)o1 [Example 321, {5-[4-(5-Methyl-2-triflouromethyl-furan-3-ylmethyl)-3-oxo-3,4-dihydro-2H-benzo[1,4]oxazin-6-ylmethylene]-4-oxo-2-thioxo-thiazolidin-3-yl}-acetic acid; Compound with ethane-1,2-diamine] | 5.01 |
| Cc1cc(CN2C(=O)COc3ccc(C=C4SC(=S)NC4=O)cc32)cc(-c2ccoc2)c1 [Example 115, 4-(3-Furan-3-yl-5-methyl-benzyl)-6-(4-oxo-2-thioxo-thiazolidin-5-ylidenemethyl)-4H-benzo[1,4]oxazin-3-one] | 7.82 |
| COCCOCOCc1cc(CN2C(=O)COc3ccc(/C=C4\SC(=S)NC4=O)cc32)cc(C(C)(C)C)c1 [Example 274, 4-[3-tert-Butyl-5-(2-methoxy-ethoxymethoxymethyl)-benzyl]-6-[4-oxo-2-thioxo-thiazolidin-(5Z)-ylidenemethyl]-4H-benzo[1,4]oxazin-3-one] | 7.89 |
| CC(C)(C)c1cc(CN2C(=O)COc3ccc(C=C4SC(=S)NC4=O)cc32)cc(C(C)(C)C)n1 [Example 45, 4-(2,6-Di-tert-butyl-pyridin-4-ylmethyl)-6-(4-oxo-2-thioxo-thiazolidin-5-ylidenemethyl)-4H-1,4-benzoxazin-3-one] | 6.47 |
| CC(C)(C)c1cc(CN2C(=O)COc3ccc(C=C4SC(=S)NC4=O)cc32)cc(C(N)=O)c1 [Example 216, 3-tert-Butyl-5-[3-oxo-6-(4-oxo-2-thioxo-thiazolidin-5-ylidenemethyl)-2,3-dihydro-1,4-benzoxazin-4-ylmethyl]-benzamide] | 7.59 |
| CC(C)(C)c1cc(C(C)(C)C)nc(CN2C(=O)COc3c(F)cc(CC4SC(=S)NC4=O)cc32)n1 (stereo not drawn) [Example 235, 4-(4,6-Di-tert-butyl-pyrimidin-2-ylmethyl)-8-fluoro-6-(4-oxo-2-thioxo-thazolidin-5-ylmethyl)-4H-benzo[1,4]oxazin-3-one] | 5.91 |
| CC(C)(C)c1cc(CN2C(=O)COc3ccc(C=C4OC(=S)NC4=O)cc32)cc(C(C)(C)C)n1 [Example 201, 4-(2,6-Di-tert-butyl-pyridin-4-ylmethyl)-6-(4-oxo-2-thioxo-oxazolidin-5-ylidenemethyl)-4H-1,4-benzoxazin-3-one] | 7.15 |
| O=C1NC(=S)S/C1=C\c1cnc2c(c1)N(CCc1ccccc1)C(=O)CO2 [Example 267, 7-[4-Oxo-2-thioxo-thiazolidin-(5Z)-ylidenemethyl]-1-phenethyl-1H-pyrido[2,3-b][1,4]oxazin-2-one] | 6.34 |
| Cc1cc(CN2CCN(C)CC2)cc(CN2C(=O)COc3ccc(C=C4SC(=O)NC4=O)cc32)c1 [Example 251, 5-{4-[3-Methyl-5-(4-methyl-piperazin-1-ylmethyl)-benzyl]-3-oxo-3,4-dihydro-2H-1,4-benzoxazin-6-ylmethylene}-thiazolidine-2,4-dione] | 7.60 |
| O=C1NC(=O)C(=Cc2ccc3c(c2)N(Cc2cc(Cl)nc(Cl)c2)C(=O)CO3)S1 [Example 226, 5-[4-(2,6-Dichloro-pyridin-4-ylmethyl)-3-oxo-3,4-dihydro-2H-1,4-benzoxazin-6-ylmethylene]-thiazolidine-2,4-dione] | 4.47 |
| CCN(CC)Cc1ccc(CN2C(=O)COc3ccc(C=C4SC(=S)NC4=O)cc32)cc1 [Example 21, 4-(4-Diethylaminomethyl-benzyl)-6-(4-oxo-2-thioxo-thiazolidin-5-ylidenemethyl)-4H-1,4-benzoxazin-3-one] | 7.85 |
| Cc1cc(CN2CCN(C)CC2)cc(CN2C(=O)COc3ccc(C=C4SC(=S)NC4=O)cc32)c1 [Example 255, 4-[3-Methyl-5-(4-methyl-piperazin-1-ylmethyl)-benzyl]-6-(4-oxo-2-thioxo-thiazolidin-5-ylidenemethyl)-4H-1,4-benzoxazin-3-one] | 7.82 |
| O=C1NC(=S)SC1=Cc1ccc2c(c1)N(Cc1ccc([N+](=O)[O-])cc1)C(=O)CO2 [Example 183, 4-(4-Nitro-benzyl)-6-(4-oxo-2-thioxo-thiazolidin-5-ylidenemethyl)-4H-1,4-benzoxazin-3-one] | 7.68 |
| Cc1cncc(CN2C(=O)COc3ccc(C=C4SC(=S)NC4=O)cc32)c1 [Example 334, 4-(5-Methyl-pyridin-3-ylmethyl)-6-(4-oxo-2-thioxo-thiazolidin-5-ylidenemethyl)-4H-1,4-benzoxazin-3-one] | 7.60 |
| CC(C)(O)c1cc(Cl)cc(CN2C(=O)COc3c(F)cc(C=C4SC(=S)NC4=O)cc32)c1 [Example 293, 4-[3-Chloro-5-(1-hydroxy-1-methyl-ethyl)-benzyl]-8-fluoro-6-(4-oxo-2-thioxo-thiazoldin-5-ylidenemethyl)-4H-benzo[1,4]oxazin-3-one; Compound with Ethane-1,2-diamine] | 7.82 |
| O=C1NC(=S)SC1=Cc1ccc2c(c1)N(CCc1cc(C(F)(F)F)cc(C(F)(F)F)c1)C(=O)CO2 [Example 113, 4-[2-(Bis-trifluromethyl-phenyl)-ethyl]-6-(4-oxo-2-thioxo-thiazolidin-5-ylidenmethyl)-4H-benzo[1,4]oxazin-3-one] | 7.85 |
| O=C1NC(=S)SC1=Cc1ccc2c(c1)N(Cc1cc(C(F)(F)F)cc(C(F)(F)F)c1)C(=O)CO2 [Example 29, 4-(3,5-Bis-trifluoromethyl-benzyl)-6-(4-oxo-2-thioxo-thiazolidin-5-ylidenemethyl)-4H-1,4-benzoxazin-3-one] | 7.51 |
| O=C1COc2ccc(C=C3NC(=S)NC3=O)cc2N1 [Example 200, 6-(5-Oxo-2-thioxo-imidazolidin-4-ylidenemethyl)-4H-benzo[1,4]oxazin-3-one] | 5.44 |
| Cc1cc(C)cc(CN2C(=O)COc3c(Cl)cc(C=C4SC(=S)NC4=O)cc32)c1 [Example 67, 8-Chloro-4-(3,5-dimethyl-benzyl)-6-(4-oxo-2-thioxo-thiazolidin-5-ylidenemethyl)-4H-1,4-benzoxazin-3-one] | 7.22 |

The next molecules have a higher pIC50 than those just listed; values first:

| pIC50 | Molecule |
| --- | --- |
| 8.22 | O=C1NC(=S)SC1=Cc1ccc2c(c1)N(Cc1cccc(-c3ccccc3)c1)C(=O)CO2 [Example 38, 4-Biphenyl-3-ylmethyl-6-(4-oxo-2-thioxo-thiazolidin-5-ylidenemethyl)-4H-1,4-benzoxazin-3-one] |
| 8.52 | O=C1NC(=S)OC1=Cc1cc(F)c2c(c1)N(Cc1ccc(F)c(Cl)c1)C(=O)CO2 [Example 300, 4-(3-Chloro-4-fluoro-benzyl)-8-fluoro-6-(4-oxo-2-thioxo-oxazolidin-5-ylidenemethyl)-4H-benzo[1,4]oxazin-3-one] |
| 8.05 | O=C1NC(=S)SC1=Cc1ccc2c(c1)N(Cc1cccc(Oc3ccccc3)c1)C(=O)CO2 [Example 170, 6-(4-Oxo-2-thioxo-thiazolidin-5-ylidenemethyl)-4-(3-phenoxy-benzyl)-4H-1,4-benzoxazin-3-one] |
| 8.05 | O=C1NC(=S)SC1=Cc1ccc2c(c1)N(Cc1cccc(C(=O)O)c1)C(=O)CO2 [Example 17, 3-[3-Oxo-6-(4-oxo-2-thioxo-thiazolidin-5-ylidenemethyl)-2,3-dihydro-1,4-benzoxazin-4-ylmethyl]-benzoic acid] |
| 8.70 | Cc1cc(C)cc(CCN2C(=O)COc3ccc(C=C4SC(=S)NC4=O)cc32)c1 [Example 30, 4-[2-(3,5-Dimethylphenyl)-ethyl]-6-(4-oxo-2-thioxo-thiazolidin-5-ylidenemethyl)-4H-1,4-benzoxazin-3-one] |
| 8.40 | O=C1NC(=S)SC1=Cc1ccc2c(c1)N(CCCCCc1ccccc1)C(=O)CO2 [Example 175, 6-(4-Oxo-2-thioxo-thiazolidin-5-ylidenemethyl)-4-(5-phenyl-pentyl)-4H-1,4-benzoxazin-3-one] |
| 8.70 | 4-(3-Chloro-4-fluoro-benzyl)-8-fluoro-6-(4-oxo-2-thioxo-thiazolidin-5-ylidenemethyl)-4H-benzo[1,4]oxazin-3-one [Example 309] |
| 8.05 | O=C1NC(=S)OC1=Cc1ccc2c(c1)N(Cc1ccc(Cl)c(Cl)c1)C(=O)CS2 [Example 199, 4-(3,4-Dichlorobenzyl)-6-(4-oxo-2-thioxo-oxazolidin-5-ylidenemethyl)-4H-benzo[1,4]thiazin-3-one] |
| 9.00 | O=C1NC(=S)SC1=Cc1cc(F)c2c(c1)N(Cc1ccc(F)cc1)C(=O)CO2 [Example 301, 8-Fluoro-4-(4-fluoro-benzyl)-6-(4-oxo-2-thioxo-thiazolidin-5-ylidenemethyl)-4H-benzo[1,4]oxazin-3-one] |
| 8.52 | O=C1NC(=S)SC1=Cc1ccc2c(c1)N(CCCc1ccccc1)C(=O)CO2 [Example 34, 6-(4-Oxo-2-thioxo-thiazolidin-5-ylidenemethyl)-4-(3-phenyl-propyl)-4H-1,4-benzoxazin-3-one] |
| 8.52 | O=C1NC(=O)C(=Cc2ccc3c(c2)N(Cc2ccc(Cl)c(Cl)c2)C(=O)CO3)S1 [Example 246, 5-[4-(3,4-Dichloro-benzyl)-3-oxo-3,4-dihydro-2H-benzo[1,4]oxazin-6-ylmethylene]-thiazolidine-2,4-dione] |
